Assay results from ChEMBL document CHEMBL3885861, “Open TG-GATES”.

Organism: Rattus norvegicus
Experiment: Open TG-GATES - Regimen: Daily Repeat
Assay type: toxicity, organism-based, Sprague-Dawley
Set-up: regimen Daily Repeat, gender Male, age 6 weeks
Details: in vivo, po, 300 mg/kg, route gavage, dose level Middle; for APTT / Bas / Eos / Fbg / Hb / Ht / Lym / MCH / MCHC / MCV / Mono / Neu / PT / Plat / RBC / Ret / WBC: tissue Blood; for KIDNEY_L / KIDNEY_R / KIDNEY_TOTAL: tissue Kidney; for LIVER: tissue Liver; for A/G / ALP / ALT / AST / BUN / CRE / Ca / Cl / DBIL / GLC / IP / K / LDH / Na / PL / RALB / TBIL / TC / TG / TP / gamma-GTP: tissue Plasma

## O=C(N[C@H](CO)[C@H](O)c1ccc([N+](=O)[O-])cc1)C(Cl)Cl [CHLORAMPHENICOL]
72 h, time 3 day
  TERMINAL_BW: 251.2 g
  APTT: 16.2 s
  Bas: 0%
  Eos: 1%
  Fbg: 294.6 mg/dL
  Hb: 13.3 g/dL
  Ht: 40.8%
  Lym: 83.4%
  MCH: 21.2 pg
  MCHC: 32.6%
  MCV: 65.1 fL
  Mono: 3.4%
  Neu: 11.6%
  PT: 14.4 s
  Plat: 128.6 x10_4/uL
  RBC: 627.6 x10_4/ul
  Ret: 4.4%
  WBC: 77.4 x10_2/uL
  KIDNEY_L: 1.1 g
  KIDNEY_R: 1.1 g
  KIDNEY_TOTAL: 2.1 g
  LIVER: 12.1 g
  A/G: 0.9
  ALP: 1601.8 IU/L
  ALT: 49.4 IU/L
  AST: 72.8 IU/L
  BUN: 16.6 mg/dL
  CRE: 0.2 mg/dL
  Ca: 10.9 mg/dL
  Cl: 105.6 meq/L
  DBIL: 0.01 mg/dL
  GLC: 169.2 mg/dL
  IP: 7.6 mg/dL
  K: 4.2 meq/L
  LDH: 84.2 IU/L
  Na: 141.2 meq/L
  PL: 150.4 mg/dL
  RALB: 2.6 g/dL
  TBIL: 0.052 mg/dL
  TC: 88.4 mg/dL
  TG: 66.6 mg/dL
  TP: 5.6 g/dL
  gamma-GTP: 1 IU/L
[…], time 7 day
  TERMINAL_BW: 277.3 g
  APTT: 16.9 s
  Bas: 0%
  Eos: 1%
  Fbg: 324 mg/dL
  Hb: 13.7 g/dL
  Ht: 42.3%
  Lym: 78.2%
  MCH: 20.5 pg
  MCHC: 32.4%
  MCV: 63.3 fL
  Mono: 3.6%
  Neu: 17%
  PT: 14.5 s
  Plat: 120.6 x10_4/uL
  RBC: 668.6 x10_4/ul
  Ret: 4.8%
  WBC: 66.9 x10_2/uL
  KIDNEY_L: 1.2 g
  KIDNEY_R: 1.2 g
  KIDNEY_TOTAL: 2.4 g
  LIVER: 14 g
  A/G: 0.9
  ALP: 1464.2 IU/L
  ALT: 56.8 IU/L
  AST: 72.8 IU/L
  BUN: 15 mg/dL
  CRE: 0.2 mg/dL
  Ca: 11.3 mg/dL
  Cl: 106 meq/L
  DBIL: 0.02 mg/dL
  GLC: 181.2 mg/dL
  IP: 7.9 mg/dL
  K: 4 meq/L
  LDH: 58.4 IU/L
  Na: 144.8 meq/L
  PL: 148.8 mg/dL
  RALB: 2.7 g/dL
  TBIL: 0.054 mg/dL
  TC: 74 mg/dL
  TG: 102.4 mg/dL
  TP: 5.7 g/dL
  gamma-GTP: 1 IU/L
[…], time 14 day
  TERMINAL_BW: 349.1 g
  APTT: 14.9 s
  Bas: 0%
  Eos: 1.4%
  Fbg: 307 mg/dL
  Hb: 14.2 g/dL
  Ht: 43.7%
  Lym: 84.8%
  MCH: 20.5 pg
  MCHC: 32.5%
  MCV: 63.1 fL
  Mono: 2.2%
  Neu: 11.4%
  PT: 14.8 s
  Plat: 123.5 x10_4/uL
  RBC: 692.8 x10_4/ul
  Ret: 4.7%
  WBC: 80 x10_2/uL
  KIDNEY_L: 1.3 g
  KIDNEY_R: 1.3 g
  KIDNEY_TOTAL: 2.6 g
  LIVER: 16.9 g
  A/G: 0.8
  ALP: 1504.6 IU/L
  ALT: 51.8 IU/L
  AST: 75.2 IU/L
  BUN: 17.4 mg/dL
  CRE: 0.2 mg/dL
  Ca: 11.3 mg/dL
  Cl: 105.2 meq/L
  DBIL: 0.024 mg/dL
  GLC: 198.2 mg/dL
  IP: 7.1 mg/dL
  K: 4 meq/L
  LDH: 66.8 IU/L
  Na: 144 meq/L
  PL: 137.6 mg/dL
  RALB: 2.6 g/dL
  TBIL: 0.052 mg/dL
  TC: 63.4 mg/dL
  TG: 93.6 mg/dL
  TP: 5.8 g/dL
  gamma-GTP: 1 IU/L
[…], time 28 day
  TERMINAL_BW: 411.6 g
  APTT: 15.7 s
  Bas: 0%
  Eos: 1.2%
  Fbg: 296.2 mg/dL
  Hb: 15.1 g/dL
  Ht: 44.3%
  Lym: 86.8%
  MCH: 19.7 pg
  MCHC: 34.1%
  MCV: 57.8 fL
  Mono: 1%
  Neu: 10%
  PT: 14.7 s
  Plat: 110.4 x10_4/uL
  RBC: 768.8 x10_4/ul
  Ret: 2.1%
  WBC: 69.9 x10_2/uL
  KIDNEY_L: 1.6 g
  KIDNEY_R: 1.5 g
  KIDNEY_TOTAL: 3.1 g
  LIVER: 18.5 g
  A/G: 0.8
  ALP: 1176.8 IU/L
  ALT: 43 IU/L
  AST: 63.8 IU/L
  BUN: 15 mg/dL
  CRE: 0.2 mg/dL
  Ca: 10.8 mg/dL
  Cl: 105 meq/L
  DBIL: 0.024 mg/dL
  GLC: 172.8 mg/dL
  IP: 6.5 mg/dL
  K: 3.5 meq/L
  LDH: 49.2 IU/L
  Na: 144.6 meq/L
  PL: 141 mg/dL
  RALB: 2.8 g/dL
  TBIL: 0.064 mg/dL
  TC: 68 mg/dL
  TG: 69.4 mg/dL
  TP: 6.1 g/dL
  gamma-GTP: 1.2 IU/L
